Laboratory results taken from US20260327204A1, “DEGRADERS OF CYCLIN-DEPENDENT KINASE 12/13, COMPOSITIONS, AND USES THEREOF” (ZHEJIANG UNIVERSITY, priority 2023, published 2026).

Experiments:
CDK13 = CDK13 (Homo sapiens, UniProt Q14004); assay: Western blot degradation of CDK13 (Example 2); assay type: cell-based; design: degradation of CDK12/13 protein in leukemia cells KASUMI-1, MV4-11, and Jurkat; endogenous in cells; settings: DC50 classes, cell line not given; for DC50: read-out: CDK13 degradation Activity
CDK13, sequence (Q14004 whole entry): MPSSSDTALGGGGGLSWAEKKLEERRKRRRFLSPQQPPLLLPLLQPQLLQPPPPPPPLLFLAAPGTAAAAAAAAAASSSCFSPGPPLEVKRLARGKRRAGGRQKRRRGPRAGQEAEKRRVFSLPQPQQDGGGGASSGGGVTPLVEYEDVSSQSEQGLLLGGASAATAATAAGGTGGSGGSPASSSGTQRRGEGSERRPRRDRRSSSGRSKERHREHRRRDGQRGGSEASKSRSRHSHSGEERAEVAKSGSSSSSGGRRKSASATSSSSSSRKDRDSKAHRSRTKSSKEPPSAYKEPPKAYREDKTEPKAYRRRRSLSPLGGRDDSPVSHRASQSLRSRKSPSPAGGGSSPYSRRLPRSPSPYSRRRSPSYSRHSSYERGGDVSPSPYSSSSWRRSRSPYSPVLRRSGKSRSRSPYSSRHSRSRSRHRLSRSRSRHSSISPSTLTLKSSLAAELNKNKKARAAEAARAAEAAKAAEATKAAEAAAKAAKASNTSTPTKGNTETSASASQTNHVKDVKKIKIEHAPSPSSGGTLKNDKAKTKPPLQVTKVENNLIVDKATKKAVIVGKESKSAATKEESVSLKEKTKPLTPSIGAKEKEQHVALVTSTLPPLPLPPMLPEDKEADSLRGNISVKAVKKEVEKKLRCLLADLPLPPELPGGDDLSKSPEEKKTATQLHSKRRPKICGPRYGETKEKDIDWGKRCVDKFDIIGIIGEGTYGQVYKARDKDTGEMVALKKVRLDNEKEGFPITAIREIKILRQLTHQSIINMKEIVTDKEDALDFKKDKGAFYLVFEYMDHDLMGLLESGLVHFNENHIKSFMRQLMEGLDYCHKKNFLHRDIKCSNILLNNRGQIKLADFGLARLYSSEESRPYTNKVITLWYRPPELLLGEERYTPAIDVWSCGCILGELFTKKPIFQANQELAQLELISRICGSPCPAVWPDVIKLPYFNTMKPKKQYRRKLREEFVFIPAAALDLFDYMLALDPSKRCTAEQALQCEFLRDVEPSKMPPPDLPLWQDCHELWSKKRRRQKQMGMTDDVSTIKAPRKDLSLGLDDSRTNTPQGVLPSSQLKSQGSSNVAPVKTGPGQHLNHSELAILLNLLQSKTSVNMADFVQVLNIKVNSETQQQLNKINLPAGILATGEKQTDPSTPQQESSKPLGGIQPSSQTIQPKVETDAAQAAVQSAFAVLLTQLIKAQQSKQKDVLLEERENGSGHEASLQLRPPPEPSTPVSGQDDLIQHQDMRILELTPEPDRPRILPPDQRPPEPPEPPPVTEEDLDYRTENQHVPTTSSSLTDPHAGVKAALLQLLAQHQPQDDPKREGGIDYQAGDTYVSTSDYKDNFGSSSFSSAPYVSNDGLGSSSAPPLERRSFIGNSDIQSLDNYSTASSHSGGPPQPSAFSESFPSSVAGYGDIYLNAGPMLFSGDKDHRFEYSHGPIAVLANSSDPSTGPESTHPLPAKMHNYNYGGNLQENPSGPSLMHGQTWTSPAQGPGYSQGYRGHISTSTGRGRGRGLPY
CDK13, sequence (O75909 whole entry partner): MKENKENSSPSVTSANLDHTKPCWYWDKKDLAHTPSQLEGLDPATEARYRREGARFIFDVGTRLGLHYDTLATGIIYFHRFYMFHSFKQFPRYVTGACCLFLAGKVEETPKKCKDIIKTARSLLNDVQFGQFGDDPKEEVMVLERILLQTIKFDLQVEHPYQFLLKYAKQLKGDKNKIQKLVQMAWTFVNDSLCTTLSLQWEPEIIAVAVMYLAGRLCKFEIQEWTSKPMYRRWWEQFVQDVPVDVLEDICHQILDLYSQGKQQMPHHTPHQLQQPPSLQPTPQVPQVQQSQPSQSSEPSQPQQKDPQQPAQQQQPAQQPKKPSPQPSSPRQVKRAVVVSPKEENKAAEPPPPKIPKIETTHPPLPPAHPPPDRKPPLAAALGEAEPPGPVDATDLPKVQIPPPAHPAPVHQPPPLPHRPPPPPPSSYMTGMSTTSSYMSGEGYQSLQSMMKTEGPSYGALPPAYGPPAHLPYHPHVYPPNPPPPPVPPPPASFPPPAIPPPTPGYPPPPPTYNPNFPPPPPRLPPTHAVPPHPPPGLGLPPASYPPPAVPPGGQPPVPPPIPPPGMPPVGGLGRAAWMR
Method: (§1) Western blot was used to determine the degradation of CDK12/13 protein in leukemia cells KASUMI-1, MV4-11, and Jurkat. The two compounds with the best degradation effects were further validated for their ability to degrade CDK12/13 protein in breast cancer cells MDA-MB-231 using a concentration gradient.
(§2) • Cell lines: KASUMI-1, MV4-11, Jurkat, or MDA-MB-231 • Culture medium: DMEM/RIPM-1640+10% Hyclone serum • Compound dissolution method: Compounds were dissolved in DMSO to prepare a 50 mM stock solution, and then diluted to the corresponding concentrations.
(§3) (1) In vitro cell culture: The selected cells were cultured in a 37 °C constant temperature incubator with 5% CO2. Once the cell density reached 70-90%, they were passaged for subsequent experiments.
(§4) (2) Cell seeding: Cells were digested, and the cell suspension was transferred to a 1.5 mL Eppendorf tube. After centrifugation at 1,000 rpm for 5 min, the cells were resuspended in 2 mL of culture medium and counted. The cell suspension was seeded in a 24-well plate at a density of 200,000 cells per well and allowed to adhere for 8-12 h.
(§5) (3) Compound treatment: The 50 mM compound stock solution was diluted with cell culture medium to a final concentration of 0.01 μM-3 μM. Cells were incubated in a 37 °C incubator with 5% CO2 for 3 h-48 h. The DMSO group served as the negative control.
(§6) At the end of the treatment time, the cells were collected and washed once with PBS. An appropriate volume of 4% SDS was added to lyse the cells, and the mixture was sonicated until no longer viscous. After centrifugation at 12,000 rpm at room temperature for 30 min, the supernatant was transferred to a new EP tube for protein quantification.
(§7) The exposure results were quantitatively analyzed using Image J software. First, the grayscale values of the bands were calculated using Image J. Then, the grayscale value of the target protein was divided by the grayscale value of the internal reference protein for normalization. The calculation formula is: […]
(§8) Where A is the grayscale value and D is the degradation rate.
(§9) In the figures, CDK12 and CDK13 are the target proteins under study, and β-Actin and GAPDH are the internal reference proteins. Internal reference proteins are used to indicate the total protein amount in each experimental group for quantitative analysis.

CDK12 = CDK12 (Homo sapiens, UniProt Q9NYV4); assay: Western blot degradation of CDK12 (Example 2); assay type: cell-based; design: degradation of CDK12/13 protein in leukemia cells KASUMI-1, MV4-11, and Jurkat; endogenous in cells; settings: DC50 classes, cell line not given; for DC50: read-out: CDK12 degradation Activity
CDK12, sequence (Q9NYV4 whole entry): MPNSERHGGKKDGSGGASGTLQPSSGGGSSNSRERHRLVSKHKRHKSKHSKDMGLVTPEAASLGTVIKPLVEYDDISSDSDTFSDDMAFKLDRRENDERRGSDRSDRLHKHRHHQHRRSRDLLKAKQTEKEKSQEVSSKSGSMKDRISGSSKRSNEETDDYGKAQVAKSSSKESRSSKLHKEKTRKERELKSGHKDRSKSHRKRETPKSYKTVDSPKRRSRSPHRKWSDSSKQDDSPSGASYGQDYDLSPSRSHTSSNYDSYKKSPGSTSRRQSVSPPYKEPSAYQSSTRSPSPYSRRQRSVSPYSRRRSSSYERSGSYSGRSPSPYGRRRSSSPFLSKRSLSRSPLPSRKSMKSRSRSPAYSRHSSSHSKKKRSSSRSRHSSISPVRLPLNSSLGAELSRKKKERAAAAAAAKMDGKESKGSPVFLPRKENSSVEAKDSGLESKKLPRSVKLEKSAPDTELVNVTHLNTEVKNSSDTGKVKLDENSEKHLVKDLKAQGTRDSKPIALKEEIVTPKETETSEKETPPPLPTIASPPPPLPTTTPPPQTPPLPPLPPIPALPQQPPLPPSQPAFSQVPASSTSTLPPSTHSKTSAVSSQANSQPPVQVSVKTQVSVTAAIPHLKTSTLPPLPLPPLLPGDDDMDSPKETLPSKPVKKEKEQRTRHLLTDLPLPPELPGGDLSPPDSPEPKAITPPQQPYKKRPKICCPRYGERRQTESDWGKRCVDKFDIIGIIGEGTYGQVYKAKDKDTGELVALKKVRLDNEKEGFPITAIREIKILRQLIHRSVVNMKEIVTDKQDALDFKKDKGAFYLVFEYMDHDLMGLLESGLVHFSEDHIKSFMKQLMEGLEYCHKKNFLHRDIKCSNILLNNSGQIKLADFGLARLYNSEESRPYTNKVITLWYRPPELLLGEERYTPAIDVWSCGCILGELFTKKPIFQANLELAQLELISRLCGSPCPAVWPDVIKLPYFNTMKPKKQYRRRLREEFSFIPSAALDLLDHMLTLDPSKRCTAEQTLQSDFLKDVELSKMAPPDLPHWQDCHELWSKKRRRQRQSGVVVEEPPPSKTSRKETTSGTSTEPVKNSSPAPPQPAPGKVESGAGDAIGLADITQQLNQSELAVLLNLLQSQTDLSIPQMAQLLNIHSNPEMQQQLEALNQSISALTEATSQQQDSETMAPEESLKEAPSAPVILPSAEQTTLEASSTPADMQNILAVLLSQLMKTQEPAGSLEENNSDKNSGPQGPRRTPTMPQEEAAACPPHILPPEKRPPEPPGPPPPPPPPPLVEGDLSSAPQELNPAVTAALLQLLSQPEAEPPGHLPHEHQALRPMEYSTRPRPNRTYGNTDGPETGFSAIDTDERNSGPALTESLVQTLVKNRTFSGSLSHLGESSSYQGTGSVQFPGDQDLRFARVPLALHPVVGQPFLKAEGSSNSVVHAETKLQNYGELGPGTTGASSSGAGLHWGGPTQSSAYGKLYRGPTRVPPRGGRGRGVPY
CDK12, sequence (O75909 whole entry partner): as the sequence (O75909 whole entry partner) above
Method: as §1, §2, §3, §4, §5, §6, §7, §8, §9

Row | Compound | DC50 (CDK13) [µM] | DC50 (CDK12) [µM] | CDK13 degradation Activity (CDK13) | CDK12 degradation Activity (CDK12)
1 | N#Cc1ccc(N[C@H]2CC[C@H](N(C(=O)NCc3ccccc3)c3ccc(-c4ccc(OCCOCCOCCOCCOCCNc5cccc6c5C(=O)N(C5CCC(=O)NC5=O)C6=O)nc4)cc3)CC2)nc1 (some centres unmarked) [Formula 35] | 3 to 10 | 1 to 3 |  | 
2 | Cc1ncsc1-c1ccc([C@H](C)NC(=O)[C@@H]2C[C@@H](O)CN2C(=O)[C@@H](NC(=O)CN2CCN(c3ncc(-c4ccc(N(C(=O)NCc5ccccc5)[C@H]5CC[C@H](Nc6ccc(C#N)cn6)CC5)cc4)cn3)CC2)C(C)(C)C)cc1 [Formula 85] | < 0.1 | < 0.1 |  | 
3 | N#Cc1ccc(N[C@H]2CC[C@H](N(C(=O)NCc3ccccc3)c3ccc(N4CCN(CCOCCOCCOCCOCCNc5cccc6c5C(=O)N(C5CCC(=O)NC5=O)C6=O)CC4)cc3)CC2)nc1 (some centres unmarked) [Formula 41] | 1 to 3 | 1 to 3 |  | 
4 | Cc1ncsc1-c1ccc([C@H](C)NC(=O)[C@@H]2C[C@@H](O)CN2C(=O)[C@@H](NC(=O)CN2CCN(c3ncc(-c4ccc(N(C(=O)NCc5ccccc5)[C@H]5CC[C@H](Nc6ccc(C#N)cn6)CC5)cc4)cn3)CC2)C(C)(C)C)cc1 [Formula 82] | < 0.1 | < 0.1 |  | 
5 | Cc1ncsc1-c1ccc([C@H](C)NC(=O)[C@@H]2C[C@@H](O)CN2C(=O)[C@@H](NC(=O)N2CC3(CCN(c4ccc(N(C(=O)NCc5ccccc5)[C@H]5CC[C@H](Nc6ncc(C#N)cn6)CC5)cc4)CC3)C2)C(C)(C)C)cc1 [Formula 54] |  |  | − | −
6 | Cc1ncsc1-c1ccc([C@H](C)NC(=O)[C@@H]2C[C@@H](O)CN2C(=O)[C@@H](NC(=O)COCCOCCOCCN2CCN(c3ccc(N(C(=O)NCc4ccccc4)[C@H]4CC[C@H](Nc5ccc(C#N)cn5)CC4)cc3)CC2)C(C)(C)C)cc1 [Formula 9] | 3 to 10 | 3 to 10 |  | 
7 | Cc1ncsc1-c1ccc([C@H](C)NC(=O)[C@@H]2C[C@@H](O)CN2C(=O)[C@@H](NC(=O)CN2CCN(c3ncc(-c4ccc(N(C(=O)NCc5ccccc5)[C@H]5CC[C@H](Nc6ccc(C#N)cn6)CC5)cc4)cn3)CC2)C(C)(C)C)cc1 [Formula 83] | < 0.1 | < 0.1 |  | 

Now from value to compound:

Row | DC50 (CDK13) [µM] | DC50 (CDK12) [µM] | CDK13 degradation Activity (CDK13) | CDK12 degradation Activity (CDK12) | Compound
8 | 3 to 10 | 3 to 10 |  |  | Cc1ncsc1-c1ccc([C@H](C)NC(=O)[C@@H]2C[C@@H](O)CN2C(=O)[C@@H](NC(=O)CC#CC2CCN(c3ccc(N(C(=O)NCc4ccccc4)[C@H]4CC[C@H](Nc5ccc(C#N)cn5)CC4)cc3)CC2)C(C)(C)C)cc1 [Formula 20]
9 | 3 to 10 | 3 to 10 |  |  | Cc1ncsc1-c1ccc([C@H](C)NC(=O)[C@@H]2C[C@@H](O)CN2C(=O)[C@@H](NC(=O)C2CC3(CC(Nc4ccc(-c5ccc(N(C(=O)NCc6ccccc6)[C@H]6CC[C@H](Nc7ccc(C#N)cn7)CC6)cc5)cn4)C3)C2)C(C)(C)C)cc1 (some centres unmarked) [Formula 28]
10 | 3 to 10 | 3 to 10 |  |  | Cc1ncsc1-c1ccc([C@H](C)NC(=O)[C@@H]2C[C@@H](O)CN2C(=O)[C@@H](NC(=O)COCCOCCOCCOc2ccc(-c3ccc(N(C(=O)NCc4ccccc4)[C@H]4CC[C@H](Nc5ccc(C#N)cn5)CC4)cc3)cn2)C(C)(C)C)cc1 [Formula 3]
11 |  |  | − | − | Cc1ncsc1-c1ccc([C@H](C)NC(=O)[C@@H]2C[C@@H](O)CN2C(=O)[C@@H](NC(=O)COCCn2cc(-c3ccc(N(C(=O)NCc4ccccc4)[C@H]4CC[C@H](Nc5ccc(C#N)cn5)CC4)cc3)ccc2=O)C(C)(C)C)cc1 [Formula 56]
12 |  |  | − | − | Cc1ncsc1-c1ccc([C@H](C)NC(=O)[C@@H]2C[C@@H](O)CN2C(=O)[C@@H](NC(=O)CC#Cc2ccc(-c3ccc(N(C(=O)NCc4ccccc4)[C@H]4CC[C@H](Nc5ccc(C#N)cn5)CC4)cc3)cn2)C(C)(C)C)cc1 [Formula 15]
13 |  |  | − | − | Cc1ncsc1-c1ccc([C@H](C)NC(=O)[C@@H]2C[C@@H](O)CN2C(=O)[C@@H](NC(=O)CN2CC(C#Cc3ccc(N(C(=O)NCc4ccccc4)[C@H]4CC[C@H](Nc5ccc(C#N)cn5)CC4)cc3)C2)C(C)(C)C)cc1 [Formula 26]
